Test results reported in US20100113517A1, “METHOD FOR THE TREATMENT OF FABRY DISEASE USING PHARMACOLOGICAL CHAPERONES” (AMICUS THERAPEUTICS, INC., priority 2007, published 2010).
Changes are numbered by the printed parent chain. Read-outs that look alike come from different tables or passages of the source.

Assays:
[1] = system: mutant α-Gal A (R301Q or Q279E); conditions: lymphoblasts from Fabry patients with R301Q or Q279E mutations; cited from earlier work
[2] = Phase I ascending single oral dose study, pharmacokinetics; type: in vivo, healthy volunteers (human); conditions: for half-life / Tmax / CL renal / AUC(0-inf) / AUC(0-t) / Cmax: male, human; for half-life / Tmax / AUC(0-inf) / AUC(0-t) / Cmax: plasma; for CL renal / Ae, cumulative percentage of DGJ excreted over the 12-hour postdose period: urine; for AUC(0-inf) / AUC(0-t) / Cmax: geometric mean
Protocol: This example describes a randomized, double blind, placebo controlled Phase I study of ascending single oral dose of DGJ to evaluate the safety, tolerability and pharmacokinetics of DGJ in healthy volunteers.
Study Design and Duration. […] Dose escalation to the next dose level (i.e., next group) proceeded following review of safety and tolerability of the previous group(s). Subjects were housed in the treatment facility from 14 hours prior to dosing until 24 hours after dosing. Meals were controlled by schedule and subjects remained abulatory for 4 hours post drug administration.
Study Population. Subjects were healthy, non-institutionalized, non-smoking male volunteers between 19 and 50 years of age (inclusive) consisting of members of the community at large.
Pharmacokinetic Sampling. Blood samples (10 mL each) were collected in blood collection tubes containing EDTA before dosing and at the following times thereafter: 0.25, 0.5, 0.75, 1, 1.5, 2, 3, 4, 5, 6, 8, 10, 12, 16 and 24 hours. Blood samples were cooled in an ice bath and centrifuged under refrigeration as soon as possible. Plasma samples were divided into two aliquots an dstored at […] pending assay. At the end of the study, all samples were transferred to MDS Pharma Services Analytical Laboratories (Lincoln) for analysis.
Pharmacokinetic parameters were summarised by treatment group using descriptive statistics (arithmetic means, standard deviations, coefficients of variation, sample size, minimum, maximum and median). In addition, geometric means were calculated for AUC0-t, AUCinf and Cmax.

α-Gal A = target: T1, α-Gal A (Homo sapiens, UniProt P06280); test: Phase Ib WBC α-Gal A enzymatic activity; type: in vivo, healthy volunteers (human)
T1 construct: α-Gal A activity was calculated in white blood cells (WBC) before dosing began; endogenous in cells; host or cells: white blood cells of healthy human volunteers
T1 sequence (P06280 32-429): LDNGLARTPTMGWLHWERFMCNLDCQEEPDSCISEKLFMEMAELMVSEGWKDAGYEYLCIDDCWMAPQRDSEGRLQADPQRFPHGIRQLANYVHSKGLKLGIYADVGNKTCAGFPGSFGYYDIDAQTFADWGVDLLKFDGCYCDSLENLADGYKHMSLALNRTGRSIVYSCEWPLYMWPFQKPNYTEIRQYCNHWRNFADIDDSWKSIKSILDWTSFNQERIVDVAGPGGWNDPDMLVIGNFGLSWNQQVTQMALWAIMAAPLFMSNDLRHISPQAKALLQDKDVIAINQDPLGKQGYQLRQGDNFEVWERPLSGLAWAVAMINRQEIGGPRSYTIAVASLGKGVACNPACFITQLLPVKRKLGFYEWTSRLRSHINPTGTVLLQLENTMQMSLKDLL
Protocol: (§1) WBC α-GAL A Enzymatic Activity Sampling. Blood samples (10 mL each) were collected in blood collection tubes containing EDTA and WBC extracted before dosing and at the following times thereafter: 100 hours, 150 hours, and 336 hours. Samples were treated as described above, and WBC α-Gal A enzymatic activity levels were determined as described in Desnick, R. J. (ed) Enzyme therapy in genetic diseases. Vol 2. Alan R Liss, New York, pp 17-32. Statistical Analysis. Safety data including laboratory evaluations, physical exams, adverse events, ECG monitoring and vital signs assessments were summarized by treatment group and point of time of collection. Descriptive statistics (arithmetic mean, standard deviation, median, minimum and maximum) were calculated for quantitative safety data as well as for the difference to baseline. Frequency counts were compiled for classification of qualitative safety data. In addition, a shift table describing out of normal range shifts was provided for clinical laboratory results. A normal-abnormal shift table was also presented for physical exam results and ECGs.

[3] = Phase Ib twice daily oral dose study, safety and tolerability; type: in vivo, healthy volunteers (human)
Protocol: Study Design and Duration. […] Subjects were housed in the treatment facility from 14 hours prior to dosing until 24 hours after dosing. Meals were controlled by schedule and subjects remained abulatory for 4 hours post drug administration
Safety and Tolerability Assessments.
as §1, with “ECGs. […]” for “ECGs.”

[4] = target: T2, human mutant α-Gal A (R301Q) (Homo sapiens, UniProt P06280, R301Q); conditions: neutral pH; cited from earlier work
T2 construct: Tissue lysates were prepared by homogenizing about 50 mg tissue in assay buffer; from tissue; host or cells: heart, kidney, skin, liver and spleen of R301Q Tg/KO mice (human transgene, mouse α-Gal A knocked out)
T2 sequence (P06280 32-429 R301Q): T1 sequence (P06280 32-429) with R270Q

time of peak concentrations, on average ([2]; all dose levels (25-675 mg single dose)): approximately 3 hours
increase of AUC and Cmax with dose ([2]; doses increased from 25 mg to 225 mg): dose-proportional manner
half-life ([2]; oral, 25-675 mg single dose, read-out: mean half-life across all dose levels): 3 to 4.6 h
Tmax ([2]; single oral dose 25 mg): 3 h
half-life ([2]; single oral dose 25 mg, read-out: t1/2 (converted)): 3.04 h
Tmax ([2]; single oral dose 75 mg): 2.92 h
half-life ([2]; single oral dose 75 mg, read-out: t1/2 (converted)): 4.05 h
Tmax ([2]; single oral dose 225 mg): 3.17 h
half-life ([2]; single oral dose 225 mg, read-out: t1/2 (converted)): 4.62 h
Tmax ([2]; single oral dose 675 mg): 2.67 h
half-life ([2]; single oral dose 675 mg, read-out: t1/2 (converted)): 4.19 h
CL renal ([2]; oral, as doses increased from 25 mg to 675 mg, read-out: mean renal clearance): 98.3 to 128 mL/min
CL renal ([2]; single oral dose 25 mg, read-out: CLR (converted)): 98.3 mL/min
CL renal ([2]; single oral dose 75 mg, read-out: CLR (converted)): 95.5 mL/min
CL renal ([2]; single oral dose 225 mg, read-out: CLR (converted)): 126 mL/min
CL renal ([2]; single oral dose 675 mg, read-out: CLR (converted)): 128 mL/min
AUC(0-inf) ([2]; single oral dose 25 mg): 1130 ng·h/mL
AUC(0-t) ([2]; single oral dose 25 mg): 1090 ng·h/mL
Cmax ([2]; single oral dose 25 mg): 201 ng/mL
AUC(0-inf) ([2]; single oral dose 75 mg): 4730 ng·h/mL
AUC(0-t) ([2]; single oral dose 75 mg): 4660 ng·h/mL
Cmax ([2]; single oral dose 75 mg): 685 ng/mL
AUC(0-inf) ([2]; single oral dose 225 mg): 11400 ng·h/mL
AUC(0-t) ([2]; single oral dose 225 mg): 11200 ng·h/mL
Cmax ([2]; single oral dose 225 mg): 2000 ng/mL
AUC(0-inf) ([2]; single oral dose 675 mg): 35700 ng·h/mL
AUC(0-t) ([2]; single oral dose 675 mg): 35300 ng·h/mL
Cmax ([2]; single oral dose 675 mg): 6490 ng/mL
inhibition of WBC α-Gal A enzymatic activity (α-Gal A; 50 mg b.i.d. or 150 mg b.i.d.): did not inhibit
WBC α-Gal A enzymatic activity (α-Gal A; 50 mg b.i.d., 100 hours): 120 % pre-dose levels
WBC α-Gal A enzymatic activity (α-Gal A; 50 mg b.i.d., 150 hours): 130 % pre-dose levels
WBC α-Gal A enzymatic activity (α-Gal A; 50 mg b.i.d., 336 hours): 145 % pre-dose levels
WBC α-Gal A enzymatic activity (α-Gal A; 150 mg b.i.d., 100 hours): 150 % pre-dose levels
WBC α-Gal A enzymatic activity (α-Gal A; 150 mg b.i.d., 150 hours): 185 % pre-dose levels
WBC α-Gal A enzymatic activity (α-Gal A; 150 mg b.i.d., 336 hours): 185 % pre-dose levels
SMILES: OCC1NCC(O)C(O)C1O (stereo not shown) [DGJ, 1-deoxygalactonojirimycin]
enhancement of mutant enzyme activity [1]: ≥ 45%
Ae, cumulative percentage of DGJ excreted over the 12-hour postdose period ([2]; single oral dose 25 mg): 8.78%
Ae, cumulative percentage of DGJ excreted over the 12-hour postdose period ([2]; single oral dose 75 mg): 23.4%
Ae, cumulative percentage of DGJ excreted over the 12-hour postdose period ([2]; single oral dose 225 mg): 40.3%
Ae, cumulative percentage of DGJ excreted over the 12-hour postdose period ([2]; single oral dose 675 mg): 39.6%
adverse events (AEs) ([3]; after 50 mg b.i.d. or 150 mg b.i.d.): no subject presented with AEs
safety and tolerability ([3]; healthy male subjects, 50 mg b.i.d. and 150 mg b.i.d., seven days): safe and well tolerated
in vitro stability of mutant α-Gal A [4]: effectively increased
